# Values quoted from earlier work as cited in US20170296666A1, “Stable Pharmaceutical Composition Of Amorphous Ticagrelor” (Amneal Pharmaceuticals Company GmbH, priority 2016, published 2017).
# Conditions: class IV = low solubility and low permeability
smiles,measurement,value
"CCCSc1nc(N[C@@H]2C[C@H]2c2ccc(F)c(F)c2)c2nnn([C@@H]3C[C@H](OCCO)[C@@H](O)[C@H]3O)c2n1 [Ticagrelor, (1S,2S,3R,5S)-3-[7-{[(1/R,2S)-2-(3,4-difluorophenyl)cyclopropyl]amino}-5 (propylthio)-3H-[1,2,3]-triazolo[4,5-d]pyrimidin-3-yl]-5-(2-hydroxyethoxy) cyclopentane-1,2-diol]",Biopharmaceutics Classification System (BCS) class,class IV
